Values of other authors as cited in US11603570B2, “Methods for the detection and treatment of leukemias that are responsive to DOT1L inhibition” (MEMORIAL SLOAN KETTERING CANCER CENTER, priority 2013, dated 2023).
Read-outs that look alike come from different tables or passages of the source.

How the values were obtained:
other methyltransferases = conditions: in words; FIG. 1B; cited from earlier work
[1] = tested on: MLL-rearranged leukemia xenograft; conditions: cited from earlier work
[2] = rats; cited from earlier work
[3] = dogs; cited from earlier work
[4] = cited from earlier work
[5] = mice or rats, at a dose efficacious against MLL-translocated leukemia cells; cited from earlier work
[6] = tested on: MLL-translocated leukemia cells; conditions: infusion, including continuous infusion; cited from earlier work

For CC(C)N(C[C@H]1O[C@@H](n2cnc3c(N)ncnc32)[C@H](O)[C@@H]1O)C1CC(CCc2nc3cc(C(C)(C)C)ccc3[nH]2)C1 (stereo partly drawn) [EPZ005676, (2R,3R,4S,5R)-2-(6-amino-9H-purin-9-yl)-5-((((1r,3S)-3-(2-(5-(tert-butyl)-1H-benzo[d]imidazol-2-yl)ethyl)cyclobutyl)(isopropyl)amino)methyl)tetrahydrofuran-3,4-diol], the “specificity for DOT1L / H3K79me as compared to other methyl transferases” value (other methyltransferases) is given as “highly selective”, the “tumor response at the highest dose” value ([1]; continuous intravenous infusion for 21 days, highest dose) is given as “complete tumor regressions” and the anti-tumor activity ([1]; continuous intravenous infusion for 21 days) is given as “dose-dependent anti-tumor activity”. The “no regrowth after the cessation of treatment” value ([1]; highest dose) was “up to 32 days”, the “effective pharmacokinetic half-life in systemic circulation” value [2] was 15 min and the “effective pharmacokinetic half-life in systemic circulation” value [3] was 90 min. For the same compound, the “solubility in aqueous solution” value [4] was “soluble”, the hematopoietic toxicity [5] was “did not show hematopoietic toxicity” and the “growth of MLL-translocated leukemia cells in mice” value [6] was “suppresses the growth”.
